According to patent publication US20080027141A1, “1,3-Dihydroxyl-9,10-anthraquinone and 3-[(3-amino)-propoxy]- 9,10-anthraquinone derivatives and pharmaceutical compositions comprising the same” (Kaohsiung Medical University, priority 2006, published 2008):
Where two headings read alike, the source gives them in different places.

Experiments:
[1] = system: Hep3B cells (human hepatoma); settings: Wei, Bai-Luh et al. (2000); read-out: ED50, Hep3B (applicants' earlier study); cited from earlier work
[2] = system: HepG2 cells (human hepatoma); settings: Wei, Bai-Luh et al. (2000); read-out: ED50, HepG2 (applicants' earlier study); cited from earlier work
[3] = system: Hep3B cells (human hepatoma); assay: In vitro anticancer assay (cytotoxicity), MTT, Hep3B; settings: for EC50: Homo sapiens, Hep3B, read-out: Cytotoxicity ED50, Hep3B
Protocol: (§1) For the microassay, the growth medium was supplemented with 10 mM HEPES buffer (pH 7.3) and incubated at 37° C. in a CO2 incubator.
(§2) The cytotoxicity was determined by colorimetric MTT (3-(4,5-dimethylthiazole-2-yl)-2,5-diphenyl-1H-tetrazolium bromide)(Sigma, St. Louis, Mo.) assay as described previously (Wei, Bai-Luh et al. (2000), Eur. J. Med. Chem., 35, 1089-1098). Briefly, cells (5×10^3/well) were plated in 96-well plates and incubated in medium for 6 h, followed by addition of serial dilutions (50 μL/well) of each of the tested compounds. After incubation at 37° C. for 5 or 6 days, the cells were pulsed with 10 μL of MTT (5 mg/mL) and incubated for an additional 4 h at 37° C. Reduced MTT was measured spectrophotometrically using a Dynatech MR 5000 microplate reader (Dynatech Laboratories, Va.) at 550 nm after lysis of cells with 100 μL of 10% SDS in 0.01 M HCl. Control wells contained medium plus cells (total absorbance) or medium alone (background absorbance). Cell death was calculated as the percentage of MTT inhibition:
(§3) In the experiment, 5-fluorouracil(5-Fu) was used as a positive control.

[4] = system: HepG2 cells (human hepatoma); assay: In vitro anticancer assay (cytotoxicity), MTT, HepG2; settings: for EC50: Homo sapiens, HepG2, read-out: Cytotoxicity ED50, HepG2; for Cytotoxic activity against HepG2 cells (in words): in vitro
Protocol: as §1, §2, §3

[5] = system: HT-29 cells (human colorectal adenocarcinoma); assay: In vitro anticancer assay (cytotoxicity), MTT, HT-29; settings: for EC50: Homo sapiens, HT-29, read-out: Cytotoxicity ED50, HT-29
Protocol: as §1, §2, §3

[6] = system: MCF-7 cells (human breast adenocarcinoma); assay: In vitro anticancer assay (cytotoxicity), MTT, MCF-7; settings: for EC50: Homo sapiens, MCF7, read-out: Cytotoxicity ED50, MCF-7; for Cytotoxic activity against MCF-7 cells (in words): in vitro
Protocol: as §1, §2, §3

[7] = system: HT-29 cells (human colorectal adenocarcinoma)
Protocol: as §1, §2, §3

[8] = system: HepG2 cells (human hepatoma)
Protocol: as §1, §2, §3

[9] = system: Hep3B cells (human hepatoma)
Protocol: as §1, §2, §3

[10] = system: MCF-7 cells (human breast adenocarcinoma)
Protocol: as §1, §2, §3

[11] = system: several cancer cell lines; assay: Cytotoxic effects against several cancer cell lines in vitro; assay type: cell-based
Protocol: The cytotoxicity was determined by colorimetric MTT (3-(4,5-dimethylthiazole-2-yl)-2,5-diphenyl-1H-tetrazolium bromide)(Sigma, St. Louis, Mo.) assay as described previously (Wei, Bai-Luh et al. (2000), Eur. J. Med. Chem., 35, 1089-1098). Briefly, cells (5×10^3/well) were plated in 96-well plates and incubated in medium for 6 h, followed by addition of serial dilutions (50 μL/well) of each of the tested compounds. After incubation at 37° C. for 5 or 6 days, the cells were pulsed with 10 μL of MTT (5 mg/mL) and incubated for an additional 4 h at 37° C. Reduced MTT was measured spectrophotometrically using a Dynatech MR 5000 microplate reader (Dynatech Laboratories, Va.) at 550 nm after lysis of cells with 100 μL of 10% SDS in 0.01 M HCl. Control wells contained medium plus cells (total absorbance) or medium alone (background absorbance).

[12] = system: MCF-7 cells; assay: Flow cytometry analysis (cell cycle, sub-G1, propidium iodide); assay type: cell-based, human
Protocol: DNA contents were analyzed by flow cytometry, and apoptosis was measured by the accumulation of sub-G1 DNA contents in cells. Results were representative of three independent experiments; and
Flow cytometry was used to determine the change of cell cycle of human cancer cells caused by the treatment of a compound according to this invention.
MCF cells (1×10^4 cells/mL) were treated with various concentrations (6.9, 13.7, and 27.5 μM) of Compound 16 for different time periods (24 h, 48 h and 72 h), followed by washing with PBS so as to terminate the reaction. After fixation with 4% paraformaldehyde/PBS (pH 7.4) at room temperature for 30 min, the cells were centrifuged at 1,000 rpm for 10 min and then permeabilized with 0.1% Triton-X-100/0.1% sodium citrate at 4° C. for 2 min. Subsequently, propidium iodide (Sigma) in PBS (10 μg/mL) was added to stain the cells at 37° C. for 30 min. The intensity of fluorescence was measured with a FACScan flow cytometer (Becton Dickinson, Mountain View, Calif.). A minimum of 5000 cell counts was collected for the analysis by LYSIS II Software.
It has been recognized that apoptotic cells have reduced DNA stainability with a variety of fluorochromes (Ojeda, F. et al. (1990), Cell Immunol., 125:535-539; Afanasev, V. N. et al. (1986), FEBS Lett., 194: 347-350). The appearance of cells with low DNA stainability forms a “sub-G1 peak”, which has been considered to be the hallmark of cell death by apoptosis (Darzynkiewicz, Z. et al. (1992), Cytometry, 13, 795-808). […] In this invention, the applicants proposed that the NHA derivatives might induce cell death by the same way. MCF-7 cells were treated with different concentrations of representative Compound 16 for different time periods.

[13] = system: MCF-7 cells; assay: DNA fragmentation assay (agarose gel electrophoresis); assay type: cell-based, human; settings: 48 and 72 h incubation, 6.9, 13.7 and 27.5 μM
Protocol: Results were representative of three independent experiments.
DNA fragmentation in general is used to characterize cell death by apoptosis (Wyllic, A. H. et al. (1980), Int. Rev. Cytol., 68:251-306; Arends, M. J. and Wyllic, A. H. (1991), Int. Rev. Exp. Pathol., 32:223-254). Apoptosis of MCF-7 cells after treatment with the representative Compound 16 was also studied by DNA fragmentation assay.
MCF cells (1×10^4 cells/mL) in 150-mm plates were treated with various concentrations (6.9, 13.7, and 27.5 μM) of Compound 16 for different time periods (24 h, 48 h and 72 h), followed by washing with PBS so as to terminate the reaction. After the addition of 100 μL lysis buffer [1% of NP-40 (Sigma) in 20 mM EDTA, 50 mM Tris-HCl, pH 7.5] and mixing, the resultant cell lysates were centrifuged at 14,000 rpm for 5 min and the supernatants were collected. The supernatants were incubated with 50 μL of RNase A (20 mg/mL) and 20 μL of SDS (10%) at 56° C. for 2 h. Thereafter, 35 μL of proteinase K (20 mg/mL) was added and the resultant mixture was incubated at 37° C. overnight. DNA fragments were precipitated after the addition of 150 μL of 10M NH4OAc and 1.2 mL of 100% ethanol at −20° C. overnight. After centrifuging and drying, the thus-obtained DNA pellets were re-suspended in 15 μL Tris-EDTA buffer and electrophoresed on a 1% agarose gel in TBE buffer at 30 V for 8 h. […]

SMILES | EC50 [3] [µM] | EC50 [4] [µM] | EC50 [5] [µM] | EC50 [6] [µM] | also measured
CN(C)CCCOc1cc(O)c2c(c1)C(=O)c1ccccc1C2=O [Compound 19, 1-hydroxy-3-[3-(dimethylamino)-propoxy]-9,10-anthraquinone] | – | – | – | – | EC50 [1]: ~7.1 µM; EC50 [2]: ~2.6 µM
CCN(CC)CCCOc1ccc2c(c1)C(=O)c1ccccc1C2=O [Compound 9, 3-[3-(Diethylamino)-propoxy]-9,10-anthraquinone] | 12.8 | 17.2 | 11.9 | 16.1 | –
CC(C)(C)NCCCOc1ccc2c(c1)C(=O)c1ccccc1C2=O [Compound 14] | – | – | – | – | EC50 [7]: 12.9 µM; EC50 [8]: 17.5 µM; EC50 [9]: 23.2 µM; EC50 [10]: 20.8 µM
O=C1c2ccccc2C(=O)c2c(O)cc(O)cc21 [Compound 1, 1,3-dihydroxy-9,10-anthraquinone] | – | – | – | – | Cytotoxic effects against several cancer cell lines (in words) [11]: failed to show cytotoxic effects
O=C1c2ccccc2C(=O)c2c(O)cc(OCCCBr)cc21 [Compound 2, 1-hydroxy-3-(3-bromopropoxy)-9,10-anthraquinone] | – | – | – | – | Cytotoxic activity against HT-29 cells (in words) [7]: no significant cytotoxic activity; Cytotoxic activity against HepG2 cells (in words) [8]: no significant cytotoxic activity; Cytotoxic activity against Hep3B cells (in words) [9]: no significant cytotoxic activity
CC(C)NCCCOc1ccc2c(c1)C(=O)c1ccccc1C2=O [Compound 11, 3-[3-(Isopropylamino)-propoxy]-9,10-anthraquinone] | 11.5 | 5.39 | 7.12 | 11.5 | Cytotoxic activity against HepG2 cells (in words) [8]: potent cytotoxic activity
O=C1c2ccccc2C(=O)c2cc(OCCCBr)ccc21 [Compound 4, 3-(3-bromopropoxy)-9,10-anthraquinone] | – | – | – | – | Cytotoxic activity against HT-29 cells (in words) [7]: no significant cytotoxic activity; Cytotoxic activity against HepG2 cells (in words) [8]: no significant cytotoxic activity; Cytotoxic activity against Hep3B cells (in words) [9]: no significant cytotoxic activity
CCCCNCCCOc1ccc2c(c1)C(=O)c1ccccc1C2=O [Compound 12, 3-[3-(Butylamino)-propoxy]-9,10-anthraquinone] | 14.2 | 7.12 | 14.5 | 10.4 | –
CCCCNCCCOc1cc(O)c2c(c1)C(=O)c1ccccc1C2=O [Compound 8, 3-[3-(Butylamino)-propoxy]-1-hydroxy-9,10-anthraquinone] | 7.93 | 4.42 | 6.52 | – | –
CC(C)(C)NCCCOc1cc(O)c2c(c1)C(=O)c1ccccc1C2=O [Compound 7, 3-[3-(tert-Butylamino)-propoxy]-1-hydroxy-9,10-anthraquinone] | 6.8 | 5.3 | 7.93 | – | –
CC(C)CNCCCOc1ccc2c(c1)C(=O)c1ccccc1C2=O [Compound 13, 3-[3-(Isobutylamino)-propoxy]-9,10-anthraquinone] | 9.26 | 10.4 | 7.72 | 14.2 | –
O=C1c2ccccc2C(=O)c2cc(O)ccc21 [Compound 3, 3-hydroxy-9,10-anthraquinone] | – | – | – | – | Cytotoxic activity against Hep3B cells (in words) ([3]; in vitro): no significant cytotoxic activity; Cytotoxic activity against HepG2 cells (in words) [4]: no significant cytotoxic activity; Cytotoxic activity against HT-29 cells (in words) ([5]; in vitro): no significant cytotoxic activity
CC(C)NCCCOc1cc(O)c2c(c1)C(=O)c1ccccc1C2=O [Compound 6, 1-Hydroxy-3-[3-(isopropylamino)-propoxy]-9,10-anthraquinone] | 5.97 | 5.52 | 4.72 | – | –
CCCNCCCOc1ccc2c(c1)C(=O)c1ccccc1C2=O [Compound 10, 3-[3-(Propylamino)-propoxy]-9,10-anthraquinone] | 12.4 | 8.92 | 6.19 | 8.36 | –
CC(C)=CCc1c(O)cc(O)c2c1C(=O)c1ccccc1C2=O [Compound 5, 1,3-Dihydroxy-4-prenyl-9,10-anthraquinone] | 9.09 | 1.23 ± 0.05 | 56.2 | 172 | Cytotoxic activity against HepG2 cells (in words) [4]: potent cytotoxicity
CN1CCN(CCCOc2ccc3c(c2)C(=O)c2ccccc2C3=O)CC1 [Compound 16] | 13.7 | 8.41 | 4.67 | 3.02 | Cytotoxic activity against HT-29 cells (in words) [7]: potent cytotoxic activity; cell cycle effect ([12]; 6.9, 13.7, 27.5 μM): arrest G2/M and S phases; sub-G1 peak in DNA histograms ([12]; 6.9, 13.7, 27.5 μM, 24, 48, 72 h): detected; maximum apoptosis cells ([12]; at 72 h): 19.97%; Cytotoxic activity against HepG2 cells (in words) [8]: less potent cytotoxic activity; DNA fragmentation [13]: significantly observed; Cytotoxic activity against Hep3B cells (in words) [9]: less potent cytotoxic activity; Cytotoxic activity against MCF-7 cells (in words) [6]: potent cytotoxic activity
O=c1[nH]cc(F)c(=O)[nH]1 [Compound 5-FU, 5-fluorouracil, reference compound] | 0.55 | 0.25 | 0.57 | – | –
O=C1c2ccccc2C(=O)c2cc(OCCCNC3CCCCC3)ccc21 [Compound 15, 3-[3-(Cyclohexylamino)-propoxy]-9,10-anthraquinone] | 4.96 | 16 | 3.86 | 5.79 | Cytotoxic activity against HT-29 cells (in words) [7]: stronger cytotoxic activities; Cytotoxic activity against Hep3B cells (in words) [9]: stronger cytotoxic activities; Cytotoxic activity against MCF-7 cells (in words) [6]: stronger cytotoxic activities
